Legend:
[1] = system: other Mucormycosis-causing fungi; test: In vitro infection with other mucormycosis-causing fungi (FIG. 23); type: cell-based
PGR = PGR translocation to the nucleus during R. delemar infection (confocal microscopy); type: cell-based, human; settings: A549 cells pretreated with Gefitinib 1 h, R. delemar infection 2 h (FIG. 16)
Procedure: Translocation of host PGR was visualized using the Zeiss LSM Duo confocal microscopy system. 12-mm glass coverslips in 12 well dishes were seeded with A549 alveolar epithelial cells and infected with 2×10^5 R. delemar or R. oryzae that have been incubated in F12K+10% FBS at 37° C. for 2 h. After a 2 h incubation at 37° C., cells were washed with HBSS and fixed with 3% paraformaldehyde. Cells were incubated with anti-PGR (Aviva MS-196-P1, recognizes B) for 1 h or overnight in 0.1% BSA for 1 hour. Coverslips were washed and counterstained with Alexa Fluor 546-labeled goat anti-rabbit or Alexa Fluor 488-goat anti-mouse. After washing, the coverslip will be mounted on a glass slide with a drop of ProLong Gold antifade reagent (Molecular Probes) and viewed by confocal fluorescent microscopy.

R. delemar = test: Neutropenic mouse model of pulmonary mucormycosis, survival; type: in vivo, mice; settings: for protection from pulmonary mucormycosis (survival): 10 mg/kg for 5 consecutive days starting 4 h post infection; for protection from pulmonary mucormycosis, delayed administration: treatment delayed for 30 h post infection, administered alone
Procedure: Murine models of Mucormycosis. Male ICR mice (20-25 g from Envigo) were immunosuppresed by cyclophosphamide (200 mg/kg administered intraperotenually [i.p]) and cortisone acetate (500 mg/kg, adminstered subcutaneously) given on days −2, +3, and +9 relative to infection. […] To control for bacterial infection, immunosuppressed mice received 50 mg/L Baytrial (enrofloxacin: Bayer, Leverkusen, Germany) ad libitum on Day −3 thorough Day 0, after which Baytril was replaced with daily ceftazidime (5 mg/mouse) treatment adminstered subcutaneously through day+13 days post infection. Mice were infected with 2.5×10^5 spores of R. delemar 99-880 in 25 μL PBS given intratracheally as previously described (Luo G, Gebremariam T, Lee H, French S W, Wiederhold N P, Patterson T F, Filler S G, Ibrahim A S. 2013. Efficacy of liposomal amphotericin B and posaconazole in intratracheal models of murine mucormycosis. Antimicrobial agents and chemotherapy 57:3340-7). […] Placebo mice received DMA:PEG300. Survival of mice served as the primary endpoint with moribund mice humanely euthanized. To determine effect of treatment on tissue fungal burden mice were immunosuppressed and infected as above. Gefitinib treatment started 4 post infection and continued through Day +3. On Day +4, mice were sacrificed and lungs and brains, representing primary and secondary target organs (Luo G, Gebremariam T, Lee H, French S W, Wiederhold N P, Patterson T F, Filler S G, Ibrahim A S. 2013. Efficacy of liposomal amphotericin B and posaconazole in intratracheal models of murine mucormycosis. Antimicrobial agents and chemotherapy 57:3340-7), were collected and processed for tissue fungal burden by qPCR (Ibrahim A S, Bowman J C, Avanessian V, Brown K, Spellberg B, Edwards J E, Jr., Douglas C M. 2005. Caspofungin inhibits Rhizopus oryzae 1,3-beta-D-glucan synthase, lowers burden in brain measured by quantitative PCR, and improves survival at a low but not a high dose during murine disseminated zygomycosis. Antimicrobial agents and chemotherapy 49:721-7.) Values are expressed as Log10 spore equivalents per gram tissue.
Statistical Analyses. In vitro experiments were performed in triplicate on two or three separate days. Data were expressed as median±interquartile range. Treatment groups were compared to controls using the Wilcoxon rank-sum test and P values <0.05 were considered significant. For the murine studies, survival of mice was analyzed using the Log Rank test, whereas differences in tissue fungal burden were analyzed by the Wilcoxon Rank Sum test using Graph pad Prism 6. P values of <0.05 were considered significant.

[2] = system: A549 cells infected with M. circinelloides; test: M. circinelloides-induced damage of A549 cells (LDH assay); type: cell-based, human; settings: 25 μM Mifepristone overnight and/or 25 μM Gefitinib 1 h, 24 h infection (FIG. 14)
[3] = system: A549 cells infected with R. delemar; test: R. delemar-induced A549 cell damage (Pierce LDH assay); type: cell-based, human
Procedure: Measurement of R. delemar-induced host cell damage. R. delemar-induced A549 cell damage was quantified using the Pierce LDH Assay with slight modifications to the manufacturer's protocol. Briefly, A549 cells were grown in 96-well tissue culture plates for 18-24 hours. […] For controls, host cells will be incubated with DMSO (the solvent used to reconstitute the inhibitor) or 25 μg/ml of mouse IgG antibody in parallel. After 24 hours of incubation at 37° C., 50 μl of the cell culture supernatant was collected from uninfected, infected, and fungi-only control wells and transferred to a 96 well plate to assay for LDH activity. Lysis buffer was added to all infected wells and incubated for 45 min at 37° C. After lysis, 50 μl of cell culture supernatant was transferred to a 96 well plate and used for the LDH Assay Kit per protocol. LDH release was calculated as follows: % Cytotoxicity=[Experimental release−Fungal Cells Spontaneous Control−Host Cells Spontaneous Control]/[Host Cell Maximum Control−Fungal Cells Maximum Control−Host Cells Spontaneous Control]×100. LDH is a cytosolic enzyme but will be released into the cell culture medium upon cell membrane damage. The amount of extracellular LDH is proportional to the amount of cell damage.
R. delemar-induced A549 cell damage was quantified using the Pierce LDH assay, with slight modifications to the manufacturer's protocol. Briefly, A549 cells were grown in 96-well tissue culture plates for 18 to 24 h. Cells were then pretreated for 1 h with inhibitor and infected with 1×10^6-2×10^6 germlings suspended in 150 μl F-12K plus 10% FBS. For controls, host cells were incubated with the appropriate amount of diluent used to reconstitute the in parallel. After 24 h of incubation at 37° C., 50 μl of the cell culture supernatant was collected from uninfected, infected, and fungus-only control wells and transferred to a 96-well plate to assay for LDH activity. Lysis buffer was added to all infected wells, and the mixture was incubated for 45 min at 37° C. After lysis, 50 μl of cell culture supernatant was transferred to a 96-well plate and used for the LDH assay kit per the protocol. LDH release was calculated as follows: % cytotoxicity=[(experimental release−fungal cell spontaneous control−host cell spontaneous control)/(host cell maximum control−fungal cell maximum control−host cell spontaneous control)]×100. LDH is a cytosolic enzyme but will be released into the cell culture medium upon cell membrane damage. The amount of extracellular LDH is proportional to the amount of cell damage.

[4] = neutropenic mice infected intratracheally, 10 mg/kg i.p. for 5 consecutive days starting 4 h post infection

What does the source list for `COc1cc2ncnc(Nc3ccc(F)c(Cl)c3)c2cc1OCCCN1CCOCC1` [Gefitinib]?
in vitro infection of other Mucormycosis-causing fungi [1]: Inhibits; translocation of PGR from the cytosol to the nucleus (PGR): reduced; protection from pulmonary mucormycosis (survival) (R. delemar): protects mice from pulmonary mucormycosis; protection from pulmonary mucormycosis (survival) (R. delemar; listed as gefitinib): protected; 18-day survival (R. delemar; delayed treatment beginning 30 h post infection for 6 consecutive days, 10 mg/kg gefitinib, 20 mg/kg posaconazole or both): ~30%; median survival time (R. delemar; [4]): > 21 days; mice survived the infection by Day 21 (R. delemar; [4]): 55%; protection from pulmonary mucormycosis, delayed administration (R. delemar): protects mice from pulmonary mucormycosis; protection from pulmonary mucormycosis, delayed administration (R. delemar; listed as gefitinib): protected mice from pulmonary mucormycosis; M. circinelloides-induced damage [2]: significantly decreased; R. delemar-induced damage of A549 cells (LDH assay) ([3]; A549 cells pretreated 1 h with 25 μM Gefitinib or 25 μg/ml Cetuximab, 24 h infection, vs vehicle or IgG1 control antibody): significantly reduced; R. delemar-induced damage of alveolar epithelial cells (LDH assay) ([3]; Example 3, Mifepristone 25 / Gefitinib 25, 24 h infection, vs vehicle (FIG. 12)): significantly decreased; host cell damage after pre-treatment of R. delemar spore preparations ([3]; spore preparations pre-treated with drug prior to the infection): did not reduce

Reference: patent US20210284742A1, “METHODS OF TREATING OR PREVENTING MUCORMYCOSIS” (University of Maryland, Baltimore, priority 2018, published 2021)
